# Read-outs that look alike come from different tables or passages of the source.
# How the values were obtained:
# Type in all cases: in vivo
# [1] = test system: barnyardgrass (Echinochloa crus-galli); test: Test B pre-/postemergence plant response; details: 1000 g ai/ha, 0 to 100 scale (0 no effect, 100 complete control); for pest or weed control at 1000 g/ha: Echinochloa crus-galli, 240 h, read-out: Plant response rating, Barnyardgrass
# In short: (§1)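 Greenhouse pots, loam/sand soil; compound formulated with surfactant in non-phytotoxic solvent. Preemergence soil spray and postemergence spray at 1–2 leaf stage run simultaneously. Visual injury, 0–100, about 10 days post-treatment.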
# corn (Zea mays) = test: Test B pre-/postemergence plant response; details: 1000 g ai/ha, 0 to 100 scale (0 no effect, 100 complete control); for Corn plant response rating (crop injury, 0 = no effect, 100 = complete kill) at 1000 g/ha: Zea mays, 240 h
# In short: as §1
# [2] = test system: giant foxtail (Setaria faberii); test: Test B pre-/postemergence plant response; details: 1000 g ai/ha, 0 to 100 scale (0 no effect, 100 complete control); for pest or weed control at 1000 g/ha: Setaria faberi, 240 h, read-out: Plant response rating, Foxtail, Giant
# In short: as §1
# [3] = test system: large (Lg) crabgrass (Digitaria sanguinalis); test: Test B pre-/postemergence plant response; details: 1000 g ai/ha, 0 to 100 scale (0 no effect, 100 complete control); for pest or weed control at 1000 g/ha: Digitaria sanguinalis, 240 h, read-out: Plant response rating, Crabgrass, Large
# In short: as §1
# [4] = test system: morningglory (Ipomoea spp.); test: Test B pre-/postemergence plant response; details: 1000 g ai/ha, 0 to 100 scale (0 no effect, 100 complete control); for pest or weed control at 1000 g/ha: Ipomoea, 240 h, read-out: Plant response rating, Morningglory
# In short: as §1
# [5] = test system: pigweed (Amaranthus retroflexus); test: Test B pre-/postemergence plant response; details: 1000 g ai/ha, 0 to 100 scale (0 no effect, 100 complete control); for pest or weed control at 1000 g/ha: Amaranthus retroflexus, 240 h, read-out: Plant response rating, Pigweed
# In short: as §1
# [6] = test system: velvetleaf (Abutilon theophrasti); test: Test B pre-/postemergence plant response; details: 1000 g ai/ha, 0 to 100 scale (0 no effect, 100 complete control); for pest or weed control at 1000 g/ha: Abutilon theophrasti, 240 h, read-out: Plant response rating, Velvetleaf
# In short: as §1
# [7] = test system: wheat (Triticum aestivum); test: Test B pre-/postemergence plant response; details: 1000 g ai/ha, 0 to 100 scale (0 no effect, 100 complete control); for plant injury at 1000 g/ha: Triticum aestivum, 240 h, read-out: Plant response rating, Wheat
# In short: as §1
# [8] = test system: barnyardgrass (Echinochloa crus-galli); test: Test D flooded paddy test plant response; details: Flood (flooded paddy test), visual rating on scale 0 to 100 (0 no effect, 100 complete control), 13 to 15 days
# Description: (§2) Plant species in the flooded paddy test consisted of rice (Oryza sativa), small-flower umbrella sedge (Cyperus difformis), ducksalad (Heteranthera limosa), and bamyardgrass (Echinochloa crus-galli) grown to the 2-leaf stage for testing. At time of treatment, test pots were flooded to 3 cm above the soil surface, treated by application of test compounds directly to the paddy water, and then maintained at that water depth for the duration of the test. Treated plants and controls were maintained in a greenhouse for 13 to 15 days, after which time all species were compared to controls and visually evaluated. Plant response ratings, summarized in Table D, are based on a scale of 0 to 100 where 0 is no effect and 100 is complete control. A dash (-) response means no test result.
# [9] = test system: ducksalad (Heteranthera limosa); test: Test D flooded paddy test plant response; details: Flood (flooded paddy test), visual rating on scale 0 to 100 (0 no effect, 100 complete control), 13 to 15 days
# Description: as §2
# rice (Oryza sativa) = test: Test D flooded paddy test plant response; details: Flood (flooded paddy test), visual rating on scale 0 to 100 (0 no effect, 100 complete control), 13 to 15 days
# Description: as §2
# [10] = test system: small-flower umbrella sedge (Cyperus difformis); test: Test D flooded paddy test plant response; details: Flood (flooded paddy test), visual rating on scale 0 to 100 (0 no effect, 100 complete control), 13 to 15 days
# Description: as §2
# [11] = test system: barnyardgrass (Echinochloa crus-galli); test: Test A pre-/postemergence plant response; details: 0 to 100 scale, 0 is no effect, 100 is complete control
# Description: (§3) Seeds of plant species selected from downy bromegrass (Bromus tectorum), cocklebur (common cocklebur, Xanthium strumarium), wild oat (Avena fatua), barnyardgrass (Echinochloa crus-galli), large (Lg) crabgrass (Digitaria sanguinalis), giant foxtail (Setaria faberii), morningglory (Ipomoea spp.), velvetleaf (Abutilon theophrasti), and sorghum (Sorghum vulgare) were planted into a sandy loam soil and treated preemergence by soil drench using test a chemical formulated in a non-phytotoxic solvent mixture which included a surfactant. At the same time these species were also treated postemergence sprayed to runoff using a test chemical formulated in the same manner. Plants ranged in height from 2 to 18 cm and were in the one- to two-leaf stage for the postemergence treatment. Treated plants and untreated controls were maintained in a greenhouse for approximately 11 days, after which time all treated plants were compared to untreated controls and visually evaluated for injury. Plant response ratings, summarized in Table A, are based on a 0 to 100 scale where 0 is no effect and 100 is complete control. A dash (-) response means no test result.
# [12] = test system: cocklebur (common cocklebur, Xanthium strumarium); test: Test A pre-/postemergence plant response; details: 0 to 100 scale, 0 is no effect, 100 is complete control
# Description: as §3
# [13] = test system: downy bromegrass (Bromus tectorum); test: Test A pre-/postemergence plant response; details: 0 to 100 scale, 0 is no effect, 100 is complete control
# Description: as §3
# [14] = test system: giant foxtail (Setaria faberii); test: Test A pre-/postemergence plant response; details: 0 to 100 scale, 0 is no effect, 100 is complete control
# Description: as §3
# [15] = test system: large (Lg) crabgrass (Digitaria sanguinalis); test: Test A pre-/postemergence plant response; details: 0 to 100 scale, 0 is no effect, 100 is complete control
# Description: as §3
# [16] = test system: morningglory (Ipomoea spp.); test: Test A pre-/postemergence plant response; details: 0 to 100 scale, 0 is no effect, 100 is complete control
# Description: as §3
# [17] = test system: sorghum (Sorghum vulgare); test: Test A pre-/postemergence plant response; details: 0 to 100 scale, 0 is no effect, 100 is complete control
# Description: as §3
# [18] = test system: velvetleaf (Abutilon theophrasti); test: Test A pre-/postemergence plant response; details: 0 to 100 scale, 0 is no effect, 100 is complete control
# Description: as §3
# wild oat (Avena fatua) = test: Test A pre-/postemergence plant response; details: 0 to 100 scale, 0 is no effect, 100 is complete control
# Description: as §3
# [19] = 1000 g ai/ha, Post Sprayed to Runoff
compound,measurement,setting,value
"Clc1ccc(-c2ccccc2Oc2ncc(Cl)cn2)nc1 [Compound 1, 5-chloro-2-[2-(5-chloro-2-pyridinyl)phenoxy]pyrimidine]",pest or weed control at 1000 g/ha,"[1]; post-emergence, Postemergence",70%
same,pest or weed control at 1000 g/ha,"[1]; pre-emergence, Preemergence",80%
same,"Corn plant response rating (crop injury, 0 = no effect, 100 = complete kill) at 1000 g/ha","corn (Zea mays); post-emergence, Postemergence",10%
same,"Corn plant response rating (crop injury, 0 = no effect, 100 = complete kill) at 1000 g/ha","corn (Zea mays); pre-emergence, Preemergence",0%
same,pest or weed control at 1000 g/ha,"[2]; post-emergence, Postemergence",80%
same,pest or weed control at 1000 g/ha,"[2]; pre-emergence, Preemergence",100%
same,pest or weed control at 1000 g/ha,"[3]; post-emergence, Postemergence",70%
same,pest or weed control at 1000 g/ha,"[3]; pre-emergence, Preemergence",100%
same,pest or weed control at 1000 g/ha,"[4]; post-emergence, Postemergence",60%
same,pest or weed control at 1000 g/ha,"[4]; pre-emergence, Preemergence",20%
same,pest or weed control at 1000 g/ha,"[5]; post-emergence, Postemergence",100%
same,pest or weed control at 1000 g/ha,"[5]; pre-emergence, Preemergence",100%
same,pest or weed control at 1000 g/ha,"[6]; post-emergence, Postemergence",100%
same,pest or weed control at 1000 g/ha,"[6]; pre-emergence, Preemergence",80%
same,plant injury at 1000 g/ha,"[7]; post-emergence, Postemergence",0%
same,plant injury at 1000 g/ha,"[7]; pre-emergence, Preemergence",0%
same,"Plant response rating, Barnyardgrass",[8]; 31 g ai/ha,0
same,"Plant response rating, Barnyardgrass",[8]; 62 g ai/ha,0
same,"Plant response rating, Barnyardgrass",[8]; 125 g ai/ha,0
same,"Plant response rating, Barnyardgrass",[8]; 250 g ai/ha,0
same,"Plant response rating, Ducksalad",[9]; 31 g ai/ha,0
same,"Plant response rating, Ducksalad",[9]; 62 g ai/ha,0
same,"Plant response rating, Ducksalad",[9]; 125 g ai/ha,0
same,"Plant response rating, Ducksalad",[9]; 250 g ai/ha,0
same,"Plant response rating, Rice",rice (Oryza sativa); 31 g ai/ha,0
same,"Plant response rating, Rice",rice (Oryza sativa); 62 g ai/ha,0
same,"Plant response rating, Rice",rice (Oryza sativa); 125 g ai/ha,0
same,"Plant response rating, Rice",rice (Oryza sativa); 250 g ai/ha,0
same,"Plant response rating, Sedge, Umbrella",[10]; 31 g ai/ha,0
same,"Plant response rating, Sedge, Umbrella",[10]; 62 g ai/ha,0
same,"Plant response rating, Sedge, Umbrella",[10]; 125 g ai/ha,0
same,"Plant response rating, Sedge, Umbrella",[10]; 250 g ai/ha,0
FC(F)(F)Oc1cccc(-c2ccccc2Oc2ncc(Cl)cn2)c1 [Compound 40],"Plant response rating, Barnyardgrass",[1]; Postemergence,30
same,"Plant response rating, Barnyardgrass",[1]; Preemergence,50
same,"Plant response rating, Corn",corn (Zea mays); Postemergence,20
same,"Plant response rating, Corn",corn (Zea mays); Preemergence,0
same,"Plant response rating, Foxtail, Giant",[2]; Postemergence,50
same,"Plant response rating, Foxtail, Giant",[2]; Preemergence,100
same,"Plant response rating, Crabgrass, Large",[3]; Postemergence,50
same,"Plant response rating, Crabgrass, Large",[3]; Preemergence,70
same,"Plant response rating, Morningglory",[4]; Postemergence,100
same,"Plant response rating, Morningglory",[4]; Preemergence,0
same,"Plant response rating, Pigweed",[5]; Postemergence,100
same,"Plant response rating, Pigweed",[5]; Preemergence,100
same,"Plant response rating, Velvetleaf",[6]; Postemergence,100
same,"Plant response rating, Velvetleaf",[6]; Preemergence,90
same,"Plant response rating, Wheat",[7]; Postemergence,10
same,"Plant response rating, Wheat",[7]; Preemergence,0
same,"Plant response rating, Barnyardgrass",[8]; 31 g ai/ha,0
same,"Plant response rating, Barnyardgrass",[8]; 62 g ai/ha,0
same,"Plant response rating, Barnyardgrass",[8]; 125 g ai/ha,0
same,"Plant response rating, Barnyardgrass",[8]; 250 g ai/ha,0
same,"Plant response rating, Ducksalad",[9]; 31 g ai/ha,0
same,"Plant response rating, Ducksalad",[9]; 62 g ai/ha,0
same,"Plant response rating, Ducksalad",[9]; 125 g ai/ha,20
same,"Plant response rating, Ducksalad",[9]; 250 g ai/ha,40
same,"Plant response rating, Rice",rice (Oryza sativa); 31 g ai/ha,0
same,"Plant response rating, Rice",rice (Oryza sativa); 62 g ai/ha,0
same,"Plant response rating, Rice",rice (Oryza sativa); 125 g ai/ha,0
same,"Plant response rating, Rice",rice (Oryza sativa); 250 g ai/ha,0
same,"Plant response rating, Sedge, Umbrella",[10]; 31 g ai/ha,0
same,"Plant response rating, Sedge, Umbrella",[10]; 62 g ai/ha,0
same,"Plant response rating, Sedge, Umbrella",[10]; 125 g ai/ha,30
same,"Plant response rating, Sedge, Umbrella",[10]; 250 g ai/ha,50
Cc1ccc(Oc2ncc(Cl)cn2)c(-c2cccc(C(F)(F)F)c2)c1 [Compound 39],"Plant response rating, Barnyardgrass",[11]; [19],50
same,"Plant response rating, Barnyardgrass","[11]; 2000 g ai/ha, Pre Soil Drench",90
same,"Plant response rating, Cocklebur",[12]; [19],40
same,"Plant response rating, Cocklebur","[12]; 2000 g ai/ha, Pre Soil Drench",0
same,"Plant response rating, Bromegrass, Downy",[13]; [19],20
same,"Plant response rating, Bromegrass, Downy","[13]; 2000 g ai/ha, Pre Soil Drench",70
same,"Plant response rating, Foxtail, Giant",[14]; [19],30
same,"Plant response rating, Foxtail, Giant","[14]; 2000 g ai/ha, Pre Soil Drench",100
same,"Plant response rating, Crabgrass, Large",[15]; [19],50
same,"Plant response rating, Crabgrass, Large","[15]; 2000 g ai/ha, Pre Soil Drench",90
same,"Plant response rating, Morningglory",[16]; [19],30
same,"Plant response rating, Morningglory","[16]; 2000 g ai/ha, Pre Soil Drench",0
same,"Plant response rating, Sorghum",[17]; [19],30
same,"Plant response rating, Sorghum","[17]; 2000 g ai/ha, Pre Soil Drench",50
same,"Plant response rating, Velvetleaf",[18]; [19],60
same,"Plant response rating, Velvetleaf","[18]; 2000 g ai/ha, Pre Soil Drench",70
same,"Plant response rating, Oat, Wild",wild oat (Avena fatua); [19],20
same,"Plant response rating, Oat, Wild","wild oat (Avena fatua); 2000 g ai/ha, Pre Soil Drench",90
